In patent US9402875B2, “Amidated dopamine neuron stimulating peptide restoration of mitochondrial activity” (University of Kentucky Research Foundation, priority 2006, dated 2016):
Ends that are not written are not given here.

Biological target: T1, GFRα1 (Homo sapiens, UniProt P56159)
T1 sequence (P56159 25-429): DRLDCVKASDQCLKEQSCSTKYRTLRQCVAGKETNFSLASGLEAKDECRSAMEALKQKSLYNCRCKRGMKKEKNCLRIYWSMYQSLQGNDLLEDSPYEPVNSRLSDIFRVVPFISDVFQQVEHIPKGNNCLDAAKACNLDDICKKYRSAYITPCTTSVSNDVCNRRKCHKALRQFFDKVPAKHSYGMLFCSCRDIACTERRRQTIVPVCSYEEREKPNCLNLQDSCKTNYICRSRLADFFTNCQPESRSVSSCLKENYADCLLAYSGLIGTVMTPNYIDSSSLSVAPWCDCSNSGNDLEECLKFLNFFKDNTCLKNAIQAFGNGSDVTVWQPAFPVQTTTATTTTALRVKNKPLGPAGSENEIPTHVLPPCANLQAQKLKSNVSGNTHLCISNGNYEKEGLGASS
Assay: Pull-down assay and ELISA with GFRα1
Type: binding
Conditions: pull-down with biotinylated DNSP-11; supported by ELISA
Method: Specifically, a solution of 25 μL GFRα1 (1 mg/mL) was incubated with 50 μL of Dynabeads® (Invitrogen) in wash and bind buffer (0.1 M sodium phosphate, pH 8.2, 0.01% ^Tween® 20) for 10 minutes at room temperature. The beads were then washed three times in 100 μl, of wash and bind buffer. 2 μg of GDNF was added and incubated for 1 hour at 4° C. 25 μL GFRα1 (1 mg/mL) was incubated with 40 μg of biotinylated DNSP-11 (bDNSP-11) for 1 hour at 4° C. They were then added to 50 μL of hydrophilic streptavidin magnetic beads (New England Biolabs) and incubated for an hour at 4° C.
Moreover, the absence of interaction between GFRα1 with DNSP-11 is supported by ELISA.

**Q.** With “PPEAPAEDRSL-NH2 [DNSP-11, PPEAPAEDRSL-amide]” as the substance, how does the “interaction with GFRα1” value read?
**A.** Its value is “do not interact”.
